Laboratory results as given in PMC7156458, “Synthetic biology based construction of biological activity-related library of fungal decalin-containing diterpenoid pyrones” (Nature Communications, 2020).
Several values for one entry are separate records, joined by “and”; a condition that tells them apart may be missing. Equal entries are not always repeated. Entries after “also recorded” stand apart in the source; their conditions may differ. Where two headings read alike, the source gives them in different places.

Assays:
[1] = tested on: hepatitis B virus (HBV), measles virus (MV), Epstein-Barr virus (EBV), herpes simplex virus (HSV); test: preliminary anti-viral screening (other viruses); type: cell-based
Text: (§1) We examined the inhibitory activities of DDPs against various species of bacteria (both gram-negative and gram-positive bacteria), fungi and viruses. […] In contrast, preliminary screening of the DDPs for anti-viral agents with hepatitis B virus (HBV), measles virus (MV), Epstein-Barr virus (EBV), herpes simplex virus (HSV) and human immunodeficiency virus-1 (HIV-1) indicated their selective inhibition of HIV.

MCF-7 cells = test: mammosphere formation assay; type: cell-based, human; conditions: MCF-7, 5 μM
SF-539 = test: cells; set-up: species or system JFCR39 human cancer cell lines; JFCR39 panel growth inhibition, sulforhodamine B total protein after 48 h; conditions: Homo sapiens, SF-539, 48 h
How it was run: (§2)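 Growth inhibition in JFCR39 human cancer lines was quantified by the SRB total-protein method following 48 h compound treatment. GI50 came from duplicate runs.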

HCC2998 = test: cells; set-up: species or system JFCR39 human cancer cell lines; JFCR39 panel growth inhibition, sulforhodamine B total protein after 48 h; conditions: Homo sapiens, HCC 2998, 48 h
How it was run: as §2

MKN-B = test: cells; set-up: species or system JFCR39 human cancer cell lines; JFCR39 panel growth inhibition, sulforhodamine B total protein after 48 h; conditions: 48 h; inhibitor; Log GI50, 48 h
How it was run: as §2

HT-29 = test: cells; set-up: species or system JFCR39 human cancer cell lines; JFCR39 panel growth inhibition, sulforhodamine B total protein after 48 h; conditions: Homo sapiens, HT-29, 48 h
How it was run: as §2

MKN-A = test: cells; set-up: species or system JFCR39 human cancer cell lines; JFCR39 panel growth inhibition, sulforhodamine B total protein after 48 h; conditions: 48 h; inhibitor; Log GI50, 48 h
How it was run: as §2

[2] = cytotoxicity in Drosophila DL1 cells; type: cell-based; conditions: Drosophila, DL1 cells (embryonic macrophage-derived), DL1 cells
Protocol: (§3) We screened the DDPs on the Drosophila assay system for cytotoxicity, inhibitory activity of innate immune signalling and insecticidal activity. The cytotoxicity of the DDPs was evaluated using two cell lines, embryonic macrophage-derived DL1 cells[58]–[60] and larval blood cell-derived l(2)mbn cells, and their IC50 values are listed in Supplementary Table 23.

DL1 cells = test: cytotoxicity in Drosophila DL1 cells; type: cell-based; conditions: DL1 cells; for IC50: Drosophila melanogaster, cytotoxicity
Protocol: as §3

[3] = tested on: human immunodeficiency virus-1 (HIV-1); test: anti-HIV MAGI assay; type: cell-based; conditions: Human immunodeficiency virus 1, MAGI, anti-HIV, MAGI assay; read-out: EC50
Text: as §1

[4] = replicate 1, relative to DMSO 1%, read-out: % viability, viability 1
[5] = replicate 2, relative to DMSO 1%, read-out: % viability, viability 2

With `C=C1CCC2C(C)(CCC=C(C)C)C(O)CCC2(C)C1Cc1c(OC)oc(CO)c(C)c1=O` (stereo not drawn) [Compound 12] the “effect on other viruses” value [1] was “without affecting other viruses”, the “effect on sphere formation” value (MCF-7 cells) was “clearly inhibited sphere formation; also recorded: strongest effect on sphere formation” and the “MFE (%) ave” value (MCF-7 cells; 7 days, mean of 3, control 0.87) was 0.21%. For the same compound, the “MFE (control = 1) ave” value (MCF-7 cells; 7 days, relative to control = 1) was 0.24, the “MFE (%)” value (MCF-7 cells; 7 days, single replicates) was 0.18% and 0.21% and 0.23% and the GI50 (SF-539) was 11500 nM. The GI50 (HCC2998) was 15700 nM, the “Log GI50” value (MKN-B) was -5.948 M and the GI50 (HT-29) was 12600 nM. The “Log GI50” value (MKN-A) was -6.771 M, the viability at 0.04 µM [2, 4] was 96.8% and the viability at 0.04 µM [2, 5] was 104%. It also gave a viability at 0.2 µM [2, 4] of 86.4%, a viability at 0.2 µM [2, 5] of 86.2% and a viability at 1 µM [2, 4] of 8.66%. It also gave a viability at 1 µM [2, 5] of 7.51%, a viability at 4 µM [2, 4] of 5.97% and a viability at 4 µM [2, 5] of 5.72%. It also gave a viability at 10 µM [2, 4] of 6.32%, a viability at 10 µM [2, 5] of 6.35% and a viability at 20 µM [2, 4] of 3.83%. For the same compound, the viability at 20 µM [2, 5] was 4.39%, the “Luminescence Raw1” value (DL1 cells; 0.04 µM, replicate 1) was 1994873 and the “Luminescence Raw2” value (DL1 cells; 0.04 µM, replicate 2) was 2143826. For the same compound, the “Luminescence Raw1” value (DL1 cells; 0.2 µM, replicate 1) was 1779203, the “Luminescence Raw2” value (DL1 cells; 0.2 µM, replicate 2) was 1776317 and the “Luminescence Raw1” value (DL1 cells; 1 µM, replicate 1) was 178477. For the same compound, the “Luminescence Raw2” value (DL1 cells; 1 µM, replicate 2) was 154679, the “Luminescence Raw1” value (DL1 cells; 4 µM, replicate 1) was 122950 and the “Luminescence Raw2” value (DL1 cells; 4 µM, replicate 2) was 117902. The “Luminescence Raw1” value (DL1 cells; 10 µM, replicate 1) was 130161, the “Luminescence Raw2” value (DL1 cells; 10 µM, replicate 2) was 130882 and the “Luminescence Raw1” value (DL1 cells; 20 µM, replicate 1) was 78962. The “Luminescence Raw2” value (DL1 cells; 20 µM, replicate 2) was 90500, the IC50 (DL1 cells; average of two replicates, read-out: IC50 Average) was 342 nM and the IC50 (DL1 cells; average±SEM, read-out: IC50) was 340 ± 30 nM. For the same compound, the IC50 (DL1 cells; replicate 1, read-out: IC50 (1)) was 371 nM, the IC50 (DL1 cells; replicate 2, read-out: IC50 (2)) was 314 nM and the EC50 [3] was under 200 nM.
